# Source: patent US9655869B2, “Estrogen antagonists as treatments for sclerosing disorders” (University of Pittsburgh—Of The Commonwealth System Of …, priority 2009, dated 2017)
# Columns and labels:
# SSc = details: references (25), (57); cited from earlier work
# human skin = experiment: ex vivo human skin organ culture: dermal and collagen bundle thickness; details: explanted human skin, 7 days; for collagen bundle thickness, ratio compared with vehicle / dermal thickness, ratio compared with vehicle: p<0.05, 3 experiments
# Experimental: Dermal and collagen bundle thickness were measured in skin sections stained with hematoxylin and eosin.
# Dermal thickness was defined as the distance from the granular layer to the junction between the dermis and subcutaneous fat. Images were taken on a Nikon Eclipse 800 microscope (Nikon Instruments, Inc., Huntley, Ill.) using identical camera settings and Image was used to measure thickness. Thickness was measured in 5 random fields in each sample.
# (§1) To further examine the effect of estradiol in skin tissues, dermal and collagen bundle thickness in dermis were assessed using an ex vivo organ culture system. Ex-planted skin tissues on 35-mm well plates were treated with estradiol, estrogen receptor alpha or beta agonists (PPT, genistein, respectively) or vehicles (ethanol for estraditol, PPT, DMSO for genistein, respectively) for 7 days, and skin sections were stained with hematoxylin and eosin. […] We also assessed the extent of deposition of fibronectin using immunohistochemistry. […] Thus, estradiol is an important factor for the induction of skin fibrosis, and the effect of estradiol is mediated by estrogen receptor alpha.
# fibronectin (FN) = experiment: FN mRNA (RT-PCR) and protein (western blot) expression in primary skin fibroblasts; assay type: cell-based, human; details: for FN protein levels in the ECM: primary fibroblasts treated 48 hrs, PPT 100 nM, genistein 100 nM, western blot; for E2-mediated increase of FN protein: skin fibroblasts pre-treated with inhibitor 1 hr prior to E2, western blot 48 hrs post-treatment, cellular lysates
# Experimental: Skin-punch biopsies (6 mm) were obtained with informed consent from the clinically affected and unaffected skin of 6 patients with SSc and 5 healthy twins. All SSc patients had diffuse skin involvement and met the American College of Rheumatology criteria for the diagnosis of SSc (1). Biopsies were performed on the leading edge of dermal thickening and clinically normal skin. The skin samples were minced, placed in 60-mm tissue culture dishes and cultured at 37° C. in a humidified atmosphere in Dulbecco's modified Eagle's medium (DMEM) (Cellgro, Herndon, Va.) supplemented with 10% fetal bovine serum (FBS; Sigma-Aldrich, St. Louis, Mo.), 100 IU/ml penicillin, and 100 μg/ml streptomycin (Invitrogen, Carlsbad, Calif.). Skin fibroblasts (2×10^5 cells per well) were seeded in 35 mm cell culture dishes in DMEM/10% FBS. The following day, the medium was replaced with phenol-red free DMEM (Cellgro) without serum for 24 hours to deprive the cells of estrogen. […] Sigma-Aldrich) for 24 hours (for RNA extraction) or 48 hours (for protein extraction). TGF-β (10 ng/ml; R&D systems, Minneapolis, Minn.) was used as a positive control. […] Cell Signaling Technology, Beverly, Mass.) were added where indicated. To determine the role of ERα and β on FN individually, cells we cultured with propyl-pyrazole-triol (PPT), an ERα specific ligand (100 nM; Tocris), and genistein, an ERβ specific ligand (100 nM; […] Extracellular matrix (ECM) was extracted as we have previously described. (35) Briefly, cells were rinsed with PBS and incubated with 8M Urea in PBS for 20 mins. Cells were aspirated and the ECM was rinsed three times with PBS. ECM was scraped in 100 μl sample buffer (20 mM dithiothreitol, 6% SDS, 0.25 M Tris, pH 6.8, 10% glycerol, 10 mM NaF and bromophenyl blue) and analyzed by western blot. Skin fibroblasts in early passage (passages 3-4) were harvested and RNA was extracted using TRIzol (Invitrogen). mRNA was reverse transcribed using Superscript II (Invitrogen) following the manufacturer's recommendations. The cDNA generated was used as a template for amplification by PCR with primers specific for ERα [NT] ID NO:1) and […] NO:2), ERβ […] NO:3) and [NT] ID NO:4), Fibronectin, [NT] ID NO:5) and 5-[…] ID NO:6) and β-actin, […] NO:7) and [NT] ID NO:8). PCR amplification was performed in a 50 μl reaction containing 10 units of the reverse transcription reaction, Taq DNA polymerase (Invitrogen), 10×PCR buffer (750 mM Tris-HCl, pH8.8, 200 mM (NH4)2SO4 and 0.1% Tween 20), 1.5 mM MgSO4, 1 mM of each deoxynucleotide triphosphate in a Peltier Thermal Cycler-200 (MJ Research, Waltham, Mass.). Conditions were an initial denaturation at 95° C. for 4 min, followed by 35 cycles of 94° C. for 45 sec, 55° C. for 30 sec, and 68° C. for 2 min. Final extension was at 68° C. for 5 min. 20 μl of each reaction was electrophoresed on a 1% agarose gel in 1×TAE (Tris/acetate/EDTA) buffer and products were visualized following staining with ethidium bromide. Molecular weight of each PCR product: ERα 1062 bp, ERβ 934 bp, FN 513 bp and β-actin 494 bp. Cells were grown to confluency in 35 mm culture dishes. Cells were rinsed with 1×PBS and scraped in sample buffer (20 mM dithiothreitol, 6% SDS, 0.25 M Tris, pH 6.8, 10% glycerol, 10 mM NaF and bromophenyl blue). Samples were separated by electrophoresis on 8% SDS-polacrylamide gels (National Diagnostic, Atlanta, Ga.) and transferred to nitrocellulose membranes. […] Immunoreactive proteins were detected by chemiluminescence (PerkinElmer Life Sciences, Boston, Mass.), followed by autoradiography.
# ERα = ERα protein in cellular lysates of skin fibroblasts (western blot); assay type: cell-based, human; details: for E2-induced increase of ERα: skin fibroblasts pre-treated with inhibitor 1 hr prior to E2, 48 hrs
# Experimental: Skin fibroblasts (2×10^5 cells per well) were seeded in 35 mm cell culture dishes in DMEM/10% FBS. The following day, the medium was replaced with phenol-red free DMEM (Cellgro) without serum for 24 hours to deprive the cells of estrogen. Fresh phenol-red free DMEM plus 10% charcoal stripped fetal bovine serum (Hyclone, Logan, Utah) was added with one of the following: ethanol as vehicle control (0.1%) or E2 (10 nM; Sigma-Aldrich) for 24 hours (for RNA extraction) or 48 hours (for protein extraction).
# Cells were grown to confluency in 35 mm culture dishes. Cells were rinsed with 1×PBS and scraped in sample buffer (20 mM dithiothreitol, 6% SDS, 0.25 M Tris, pH 6.8, 10% glycerol, 10 mM NaF and bromophenyl blue). Samples were separated by electrophoresis on 8% SDS-polacrylamide gels (National Diagnostic, Atlanta, Ga.) and transferred to nitrocellulose membranes. Membranes were blocked with 5% non-fat milk in 1×TBS-Tween20 (0.2 M Tris, 0.14 M NaCl, 0.1% Tween 20), followed by incubation with mouse monoclonal anti-human EDA-fibronectin antibody, rabbit polyclonal anti-human fibronectin antibody, rabbit polyclonal anti-ERα antibody, rabbit polyclonal anti-ERβ antibody (Santa Cruz Biotechnology, Santa Cruz, Calif.), mouse monoclonal anti-human vitronectin, mouse monoclonal anti-β-actin (Sigma-Aldrich), or mouse monoclonal anti-GAPDH (Ambion, Austin, Tex.) in 1×TBS-Tween20 followed by horseradish peroxide-conjugated donkey anti-rabbit IgG (Amersham, Piscataway, N.J.) or donkey anti-mouse IgG (Amersham). Immunoreactive proteins were detected by chemiluminescence (PerkinElmer Life Sciences, Boston, Mass.), followed by autoradiography.
# We also examined the effect of the chemical inhibitors on ERα and ERβ.
# fibronectin = experiment: ex vivo human skin organ culture: fibronectin immunohistochemistry; details: explanted human skin, 7 days; anti-fibronectin antibody, AEC
# Experimental: 6 μm sections of paraffin-embedded skin tissues were de-paraffinized, endogenous peroxidase was quenched using 10% H2O2, and endogenous biotin was blocked using the biotin blocking kit (Dakocytomation, Carpinteria, Calif.). Sections were blocked with 5% serum and incubated with anti-fibronectin antibody followed by secondary antibody. Bound secondary antibody was detected using the AEC Red kit. A light hematoxylin counterstain was used to identify nuclei. Images were taken on a Nikon Eclipse 800 microscope.
# as §1
# MCF7 = details: reference (56); read-out: 1050 in the MCF7 proliferation assay; cited from earlier work
# [1] = serum half life; cited from earlier work
smiles,measurement,setting,value
CC(=O)Oc1ccc(C(=C2CCCCC2)c2ccc(OC(C)=O)cc2)cc1 [Cyclofenil],SSc symptoms / treatment outcome in SSc patients,SSc,disappointing results
"C[C@]12CC[C@@H]3c4ccc(O)cc4CC[C@H]3[C@@H]1CC[C@@H]2O [E2, 17-β-Estradiol]","collagen bundle thickness, ratio compared with vehicle",human skin,2.62 ± 0.18 arbitrary unit
same,"dermal thickness, ratio compared with vehicle",human skin,1.61±0.12 arbitrary unit
same,FN mRNA and protein levels,"fibronectin (FN); healthy twin and SSc fibroblasts, E2 10 nM, 24 hrs (mRNA), 48 hrs (protein)",increased
same,FN protein levels in the ECM,fibronectin (FN); E2 10 nM,increased
same,ERα level,ERα; skin fibroblasts stimulated with E2 48 hrs,increased
same,fibronectin expression ex vivo (immunohistochemistry),fibronectin,induce fibronectin expression
"C[C@]12CC[C@@H]3c4ccc(O)cc4C[C@@H](CCCCCCCCC[S+]([O-])CCCC(F)(F)C(F)(F)F)[C@H]3[C@@H]1CC[C@@H]2O (stereo partly drawn) [ICI 182,780, fulvestrant]",IC50,MCF7,~14 nM
same,half life,[1],approximately forty
same,effect of estradiol on dermal and collagen bundle thickness in presence of antagonist,human skin; E2+ICI,blocked the effect of estradiol
same,TGF-β-induced FN levels,"fibronectin (FN); TGF-β 10 ng/ml, ICI 182,780 100 nM",did not affect
same,effect of E2 on FN mRNA and protein expression in presence of antagonist,"fibronectin (FN); normal skin fibroblasts, E2 10 nM 48 hrs, ICI 182,780 100 nM, ECM and supernatants",blocked the effect of E2
"N#CC(=C(/N)Sc1ccccc1N)/C(C#N)=C(\N)Sc1ccccc1N [MEK inhibitor, U0126]",E2-mediated increase of FN protein,fibronectin (FN),more modest effect
same,E2-induced increase of ERα,ERα,blocked
"CCCc1c(-c2ccc(O)cc2)nn(-c2ccc(O)cc2)c1-c1ccc(O)cc1 [PPT, propyl-pyrazole-triol]","collagen bundle thickness, ratio compared with vehicle",human skin,1.84 ± 0.15 arbitrary unit
same,"dermal thickness, ratio compared with vehicle",human skin,1.54±0.05 arbitrary unit
"CC/C(=C(\c1ccccc1)c1ccc(OCCN(C)C)cc1)c1ccccc1 [Tamoxifen, tamoxifen]",SSc symptoms / treatment outcome in SSc patients,SSc,did not improve SSc symptoms
O=c1c(-c2ccc(O)cc2)coc2cc(O)cc(O)c12 [genistein],thickening of dermis and collagen bundles,human skin; vs DMSO vehicle,did not induce thickening
same,FN protein levels in the ECM,fibronectin (FN); E2 10 nM,modestly increased
"Oc1ccc(-c2nc(-c3ccncc3)c(-c3ccc(F)cc3)[nH]2)cc1 [p38 MAPK inhibitor, SB202190]",E2-mediated increase of FN protein,fibronectin (FN),attenuated
same,E2-induced increase of ERα,ERα,blocked
